Source: patent publication US20080312305A1, “Imidazoles as Gaba- B Receptor Modulators” (priority 2005, published 2008)

Biological target: T1, GABAB receptor (GABABR1a/GABABR2) (Homo sapiens, UniProt O75899+Q9UBS5)
T1 construct: expressed in transfected cells; membranes prepared from the cells
Experiment: [35S]-GTPγS binding assay, potency of positive allosteric modulator on GABA EC50
Assay type: biochemical
Conditions: potency of the positive allosteric modulator (log EC50 for GABA plotted against log modulator concentration)
Description: GABABR1a and GABABR2 were cloned from human brain cDNA and subcloned into pCI-Neo (Promega) and pALTER-1 (Promega), respectively. A GABABR1a-Gαqi5 fusion protein expression vector was constructed using the pCI-Neo-GABABR1a cDNA plasmid and pLEC1-Gαqi5 (Molecular Devices, Calif.). In order to make the Gαqi5 pertussis toxin insensitive, Cys356 was mutated to Gly using standard PCR methodology with the primers 5′-[…]-3′ (forward) and 5′-GCGGCCG […]-3′ (reverse). The Gαqi5mut cDNA was ligated into the BamHI and NotI sites of pcDNA3.0 (Invitrogen). The GABABR1a coding sequence was amplified by PCR from pCI-Neo-GABABR1a using the primers, 5′-[…]-3′ (forward) and 5′-[…]-3′ (reverse) and subcloned into the BamHI site of pcDNA3.0-Gαqi5mut.
For generation of stable cell lines, CHO-K1 cells were grown in Nut mix F-12 (Ham) media supplemented with 10% FBS, 100 U/ml Penicillin and 100 μg/ml Streptomycin at 37° C. in a humidified CO2-incubator. […]
[^35S]-GTPγS binding assays were performed at 30° C. for 45 min in membrane buffer (100 mM NaCl, […], 1 mM EDTA, 50 mM HEPES, pH 7.4) containing 0.025 μg/μl of membrane protein (prepared from the cell lines described above) with 0.01% bovine serum albumin (fatty acid free), 10 μM GDP, 100 μM DTT and 0.53 nM [^35S]-GTPγS (Amersham-Pharmacia Biotech) in a final volume of 200 μl. Non-specific binding was determined in the presence of 20 μM GTPγS. […]

T1 sequence (Q9UBS5 15-961 limits assumed): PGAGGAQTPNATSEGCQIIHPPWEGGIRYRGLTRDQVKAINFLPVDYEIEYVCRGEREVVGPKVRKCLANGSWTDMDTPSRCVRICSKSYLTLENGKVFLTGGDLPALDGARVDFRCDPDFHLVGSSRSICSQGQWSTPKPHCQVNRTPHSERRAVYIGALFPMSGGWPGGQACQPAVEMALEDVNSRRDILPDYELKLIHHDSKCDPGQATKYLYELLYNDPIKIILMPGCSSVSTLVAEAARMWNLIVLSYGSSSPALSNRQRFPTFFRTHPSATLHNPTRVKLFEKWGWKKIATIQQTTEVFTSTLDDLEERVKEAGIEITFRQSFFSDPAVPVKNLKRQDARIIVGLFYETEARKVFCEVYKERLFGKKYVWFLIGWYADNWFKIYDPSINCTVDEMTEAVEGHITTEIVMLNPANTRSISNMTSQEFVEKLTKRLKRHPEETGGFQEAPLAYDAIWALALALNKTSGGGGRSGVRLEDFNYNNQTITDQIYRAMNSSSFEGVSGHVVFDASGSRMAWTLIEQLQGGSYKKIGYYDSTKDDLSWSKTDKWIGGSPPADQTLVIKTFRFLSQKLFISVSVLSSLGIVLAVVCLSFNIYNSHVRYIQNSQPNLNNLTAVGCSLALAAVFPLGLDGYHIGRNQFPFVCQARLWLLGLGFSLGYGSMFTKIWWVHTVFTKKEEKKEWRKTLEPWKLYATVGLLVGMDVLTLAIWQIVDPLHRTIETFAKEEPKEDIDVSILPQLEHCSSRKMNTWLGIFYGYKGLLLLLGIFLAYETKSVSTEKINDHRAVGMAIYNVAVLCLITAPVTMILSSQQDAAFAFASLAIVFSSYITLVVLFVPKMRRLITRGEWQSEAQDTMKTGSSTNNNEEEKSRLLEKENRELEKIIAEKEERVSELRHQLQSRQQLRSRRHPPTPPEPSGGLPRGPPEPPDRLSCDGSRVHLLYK
T1 sequence (O75899 42-941): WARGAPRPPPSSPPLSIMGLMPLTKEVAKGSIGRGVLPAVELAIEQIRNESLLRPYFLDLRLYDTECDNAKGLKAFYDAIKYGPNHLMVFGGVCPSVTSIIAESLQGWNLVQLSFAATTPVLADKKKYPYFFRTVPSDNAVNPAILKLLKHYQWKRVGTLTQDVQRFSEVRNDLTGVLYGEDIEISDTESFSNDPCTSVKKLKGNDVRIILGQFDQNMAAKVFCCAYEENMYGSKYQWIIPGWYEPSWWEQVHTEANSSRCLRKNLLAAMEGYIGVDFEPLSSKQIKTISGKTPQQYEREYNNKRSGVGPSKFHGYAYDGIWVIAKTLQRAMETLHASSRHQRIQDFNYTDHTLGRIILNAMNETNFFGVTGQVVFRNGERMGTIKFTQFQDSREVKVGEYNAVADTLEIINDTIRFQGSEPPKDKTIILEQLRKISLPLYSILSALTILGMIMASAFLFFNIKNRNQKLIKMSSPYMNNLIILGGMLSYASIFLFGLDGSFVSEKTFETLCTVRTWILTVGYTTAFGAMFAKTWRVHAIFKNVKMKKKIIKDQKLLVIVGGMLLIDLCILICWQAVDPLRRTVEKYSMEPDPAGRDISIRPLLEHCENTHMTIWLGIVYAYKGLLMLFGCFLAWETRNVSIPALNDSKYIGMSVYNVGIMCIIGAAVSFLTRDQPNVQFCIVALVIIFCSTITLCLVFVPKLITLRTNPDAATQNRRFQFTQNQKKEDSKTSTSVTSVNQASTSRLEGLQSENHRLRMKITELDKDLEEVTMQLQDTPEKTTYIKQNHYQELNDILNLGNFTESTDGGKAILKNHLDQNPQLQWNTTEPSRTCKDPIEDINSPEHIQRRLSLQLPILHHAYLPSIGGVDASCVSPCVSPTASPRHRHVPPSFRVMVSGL

SMILES | EC50
CCCc1nc(NC(=O)C2COc3ccccc3O2)c(C(=O)OCC)n1CC(C)C (centres unmarked) [Example 25, Ethyl 4-[(2,3-dihydro-1,4-benzodioxin-2-ylcarbonyl)amino]-1-isobutyl-2-propyl-1H-imidazole-5-carboxylate] | 5.54 µM
CCCc1nc(NC(=O)C2COc3ccccc3O2)c(C(=O)OC(C)(C)C)n1CC(C)C (centres unmarked) [Example 21, Tert-butyl 4-[(2,3-dihydro-1,4-benzodioxin-2-ylcarbonyl)amino]-1-isobutyl-2-propyl-1H-imidazole-5-carboxylate] | 3.68 µM
